What all share (assay): ≥ marks a high value that may be exact or a test limit, other limits are often not marked, values filed in µg/mL are converted to µM
The test system of experiment [1] is Staphylococcus aureus.
Experiment [2] relates to Escherichia coli.
Experiment [3] concerns Escherichia coli ATCC 25922.
Experiment [4] deals with Pseudomonas aeruginosa ATCC 27853.
Experiment [5] relates to Staphylococcus aureus ATCC 29213.
Experiment [6] concerns Pseudomonas aeruginosa PAO1.
The subject of experiment [7] is Pseudomonas aeruginosa.

Values after ≈ are worked out from the molar mass of the structure shown. Some results are limits rather than exact numbers.

The term MIC denotes the lowest concentration found to suppress growth. Take `CC[C@H](C)[C@H](NC(=O)[C@H](C)NC(=O)[C@H](CO)NC(=O)[C@H](CC(C)C)NC(=O)[C@@H](N)Cc1ccccc1)C(=O)N[C@@H](C)C(=O)N[C@@H](CO)C(=O)N[C@@H](CCSC)C(=O)N[C@@H](CC(C)C)C(=O)NCC(=O)N[C@@H](CCCCN)C(=O)N[C@@H](Cc1ccccc1)C(=O)N[C@@H](CC(C)C)C(=O)O` [FLSAIASMLGKFL]: in experiment [1], the minimal inhibitory concentration (MIC) worked out at 200 µM (≈ 280 µg/mL).

In the case of `CC[C@H](C)[C@H](NC(=O)CNC(=O)[C@H](CO)NC(=O)[C@H](CC(C)C)NC(=O)[C@@H](NC(=O)CN)[C@@H](C)CC)C(=O)N[C@@H](CC(C)C)C(=O)NCC(=O)N[C@@H](CCSC)C(=O)NCC(=O)N[C@@H](CCCCN)C(=O)N[C@@H](CCCCN)C(=O)N[C@@H](CC(C)C)C(=O)N[C@H](C(=O)N[C@H]1CSSC[C@@H](C(=O)O)NC(=O)[C@H](CC(C)C)NC(=O)CNC(=O)[C@H](CO)NC(=O)[C@H](CC(C)C)NC(=O)CNC1=O)C(C)C` [GILSGILGMGKKLVCGLSGLC], the minimum inhibitory concentration (MIC) came out at 15 µM (≈ 30.3 µg/mL) in experiment [2] and 50 µM (≈ 101 µg/mL) in experiment [1].

Consider `NCC(=O)N[C@@H](CCCN=C(N)N)C(=O)N[C@@H](CCCN=C(N)N)C(=O)N1CCC[C@H]1C(=O)N[C@@H](CCCN=C(N)N)C(=O)N1CCC[C@H]1C(=O)N[C@@H](CCCN=C(N)N)C(=O)N1CCC[C@H]1C(=O)N[C@@H](CCCN=C(N)N)C(=O)N1CCC[C@H]1C(N)=O` [GRRPRPRPRP], for which the minimum inhibitory concentration (MIC) in experiment [3], in experiment [4] and in experiment [5] was above 160 µM each time.

In experiment [6], `CC[C@H](C)[C@H](NC(=O)[C@@H](NC(=O)[C@H](CC(N)=O)NC(=O)[C@H](CC(C)C)NC(=O)[C@H](CCSC)NC(=O)[C@@H](NC(=O)[C@H](Cc1ccccc1)NC(=O)[C@H](Cc1ccccc1)NC(=O)[C@H](CC(N)=O)NC(=O)[C@H](CCCCN)NC(=O)[C@H](CC(C)C)NC(=O)[C@H](CC(N)=O)NC(=O)[C@H](CCCCN)NC(=O)[C@@H](NC(=O)[C@@H](NC(=O)[C@@H](NC(=O)[C@H](C)NC(=O)[C@@H](NC(=O)[C@H](CCCCN)NC(=O)[C@@H](N)CCCCN)[C@@H](C)CC)[C@@H](C)CC)[C@@H](C)CC)[C@@H](C)O)[C@@H](C)CC)[C@@H](C)CC)C(=O)O` [KKIAIITKNLKNFFIMLNII] registered an MIC above 128 µM.

`CC(C)C[C@H](NC(=O)CNC(=O)[C@H](C)NC(=O)[C@H](CC(C)C)NC(=O)[C@H](CCCCN)NC(=O)[C@H](CCCCN)NC(=O)[C@H](C)NC(=O)[C@H](CC(C)C)NC(=O)CNC(=O)[C@H](C)NC(=O)[C@H](CC(C)C)NC(=O)[C@H](CCCCN)NC(=O)[C@H](CCCCN)NC(=O)[C@H](C)NC(=O)[C@H](CC(C)C)NC(=O)CNC(=O)[C@H](C)NC(=O)[C@H](CC(C)C)NC(=O)[C@@H](N)CCCCN)C(=O)N[C@@H](C)C(=O)N[C@@H](CCCCN)C(N)=O` [KLAGLAKKLAGLAKKLAGLAK]: the figures for the minimal inhibitory concentration (MIC) in experiment [3], in experiment [4] and in experiment [5] were 3.88 µM (≈ 8 µg/mL), 62 µM (≈ 128 µg/mL) and 7.75 µM (≈ 16 µg/mL), respectively.

As to `CC(C)C[C@H](NC(=O)CNC(=O)[C@H](CCCCN)NC(=O)[C@H](C)NC(=O)[C@H](CC(C)C)NC(=O)[C@H](CCCCN)NC(=O)[C@H](C)NC(=O)[C@H](CC(C)C)NC(=O)CNC(=O)[C@H](CCCCN)NC(=O)[C@H](C)NC(=O)[C@H](Cc1c[nH]c2ccccc12)NC(=O)[C@H](CCCCN)NC(=O)[C@H](C)NC(=O)[C@H](CC(C)C)NC(=O)CNC(=O)[C@H](CCCCN)NC(=O)[C@H](C)NC(=O)[C@H](CC(C)C)NC(=O)[C@@H](N)CCCCN)C(=O)N[C@@H](C)C(N)=O` [KLAKGLAKWAKGLAKLAKGLA], the minimum inhibitory concentration (MIC) in experiment [2] is 3.74 µM (≈ 8 µg/mL); in experiment [7], 15 µM (≈ 32 µg/mL); in experiment [1], 3.74 µM (≈ 8 µg/mL).

In the case of `CC[C@H](C)[C@H](NC(=O)[C@H](Cc1ccccc1)NC(=O)[C@H](CO)NC(=O)[C@H](CCCCN)NC(=O)[C@H](Cc1c[nH]c2ccccc12)NC(=O)[C@@H](N)CCCCN)C(=O)N[C@@H](CC(N)=O)C(=O)N[C@@H](CCCCN)C(=O)N[C@@H](CC(C)C)C(=O)N[C@H](C(=O)N[C@@H](CO)C(=O)N[C@@H](CCCCN)C(=O)N[C@@H](Cc1ccccc1)C(=O)N[C@@H](CC(C)C)C(=O)N[C@@H](Cc1cnc[nH]1)C(=O)N[C@@H](CO)C(=O)N[C@@H](C)C(=O)N[C@@H](CCCCN)C(=O)N[C@@H](CCCCN)C(=O)N[C@@H](Cc1ccccc1)C(N)=O)[C@@H](C)O` [KWKSFINKLTSKFLHSAKKF], the minimum inhibitory concentration (MIC) in experiment [7] came to 5.13 µM (≈ 12.5 µg/mL).

`CC(C)C[C@H](NC(=O)[C@H](Cc1ccccc1)NC(=O)[C@H](CCCCN)NC(=O)[C@H](CO)NC(=O)[C@@H](NC(=O)[C@H](CC(C)C)NC(=O)[C@H](CCCCN)NC(=O)[C@H](CCCCN)NC(=O)[C@H](CCCCN)NC(=O)[C@H](Cc1ccccc1)NC(=O)[C@H](CO)NC(=O)[C@H](CCCCN)NC(=O)[C@H](Cc1c[nH]c2ccccc12)NC(=O)[C@@H](N)CCCCN)[C@@H](C)O)C(=O)N[C@@H](Cc1cnc[nH]1)C(=O)N[C@@H](CO)C(=O)N[C@@H](C)C(=O)N[C@@H](CCCCN)C(=O)N[C@@H](CCCCN)C(=O)N[C@@H](Cc1ccccc1)C(N)=O` [KWKSFKKKLTSKFLHSAKKF] yielded a minimal inhibitory concentration (MIC) in experiment [7] of 5.06 µM (≈ 12.5 µg/mL). The MIC values of the last two compounds are within 1.5-fold of each other.

Turning to `CC(C)C[C@H](NC(=O)[C@H](CCCCN)NC(=O)[C@H](CC(C)C)NC(=O)[C@H](CC(C)C)NC(=O)[C@H](CCCCN)NC(=O)[C@H](CCCCN)NC(=O)[C@H](CCC(=O)O)NC(=O)[C@H](CC(C)C)NC(=O)[C@H](CCCCN)NC(=O)[C@H](CC(C)C)NC(=O)[C@H](CC(C)C)NC(=O)[C@H](CCCCN)NC(=O)[C@H](CCCCN)NC(=O)[C@@H](N)CC(C)C)C(=O)N[C@@H](C)C(=O)NCC(=O)O` [LKKLLKLEKKLLKLAG], the minimal inhibitory concentration (MIC) in experiment [3] is 5 µM (≈ 9.18 µg/mL); in experiment [5], above 40 µM.

With `CC(=O)N[C@@H](CC(C)C)C(=O)N[C@@H](CCCCN)C(=O)N[C@@H](CCCCN)C(=O)N[C@@H](CC(C)C)C(=O)N[C@@H](CC(C)C)C(=O)N[C@@H](CCCCN)C(=O)N[C@@H](CC(C)C)C(=O)N[C@@H](CC(C)C)C(=O)N[C@@H](CCCCN)C(=O)N1CCC[C@H]1C(=O)N[C@@H](CC(C)C)C(=O)N[C@@H](CC(C)C)C(=O)N[C@@H](CCCCN)C(=O)N[C@@H](CC(C)C)C(N)=O` [LKKLLKLLKPLLKL], the minimal inhibitory concentration (MIC) in experiment [3] is 5 µM (≈ 8.51 µg/mL); in experiment [5], 2.5 µM (≈ 4.26 µg/mL).

`CC(C)C[C@H](NC(=O)[C@H](CCCCN)NC(=O)[C@H](CC(C)C)NC(=O)[C@H](CC(C)C)NC(=O)[C@H](CCCCN)NC(=O)[C@H](CCCCN)NC(=O)[C@H](CO)NC(=O)[C@H](CC(C)C)NC(=O)[C@H](CCCCN)NC(=O)[C@H](CC(C)C)NC(=O)[C@H](CC(C)C)NC(=O)[C@H](CCCCN)NC(=O)[C@H](CCCCN)NC(=O)[C@@H](N)CC(C)C)C(=O)N[C@@H](C)C(=O)NCC(=O)O` [LKKLLKLSKKLLKLAG]: the figures for the MIC in experiment [3] and in experiment [5] were 2.5 µM (≈ 4.49 µg/mL) and 10 µM (≈ 17.9 µg/mL), respectively.

Take `CC[C@H](C)[C@H](NC(=O)[C@H](CCCCN)NC(=O)[C@H](CCCN=C(N)N)NC(=O)[C@@H](N)CCC(N)=O)C(=O)N[C@@H](CCCN=C(N)N)C(=O)N[C@H](C(=O)N[C@@H](CCCN=C(N)N)C(=O)N[C@@H](CC(C)C)C(=O)N[C@@H](CO)C(=O)N[C@@H](C)C(=O)O)C(C)C` [QRKIRVRLSA]: the figures for the minimum inhibitory concentration (MIC) in experiment [3], in experiment [4] and in experiment [5] were 1.63 µM (≈ 2 µg/mL), 3.26 µM (≈ 4 µg/mL) and above 52.2 µM, respectively.

Take `CC[C@H](C)[C@H](NC(=O)[C@H](CCCN=C(N)N)NC(=O)[C@H](CCCN=C(N)N)NC(=O)[C@@H](N)CCC(N)=O)C(=O)N[C@@H](CCCN=C(N)N)C(=O)N[C@H](C(=O)N[C@@H](CCCN=C(N)N)C(=O)N[C@@H](CC(C)C)C(=O)N[C@@H](CO)C(=O)N[C@@H](C)C(=O)O)C(C)C` [QRRIRVRLSA]: the minimum inhibitory concentration (MIC) was 12.8 µM (≈ 16 µg/mL) in experiment [3], 51 µM (≈ 64 µg/mL) in experiment [4] and above 51 µM in experiment [5].

The values are drawn from DBAASP.
